Data published in paper PMC3268748, “A novel cold-active β-D-galactosidase from the Paracoccus sp. 32d - gene cloning, purification and characterization” (Microbial Cell Factories, 2011).
Like-named read-outs stand apart in the source and are kept apart here.

Target: T1, BgaL; Paracoccus sp. 32d β-D-galactosidase (Paracoccus sp. 32d, UniProt D1LZK0)
T1 construct: E. coli LMG194, pBAD/Myc-His A with native stop codon (no tag), ion exchange purified; homodimer 161 kDa; GH2
T1 sequence (D1LZK0 1-731): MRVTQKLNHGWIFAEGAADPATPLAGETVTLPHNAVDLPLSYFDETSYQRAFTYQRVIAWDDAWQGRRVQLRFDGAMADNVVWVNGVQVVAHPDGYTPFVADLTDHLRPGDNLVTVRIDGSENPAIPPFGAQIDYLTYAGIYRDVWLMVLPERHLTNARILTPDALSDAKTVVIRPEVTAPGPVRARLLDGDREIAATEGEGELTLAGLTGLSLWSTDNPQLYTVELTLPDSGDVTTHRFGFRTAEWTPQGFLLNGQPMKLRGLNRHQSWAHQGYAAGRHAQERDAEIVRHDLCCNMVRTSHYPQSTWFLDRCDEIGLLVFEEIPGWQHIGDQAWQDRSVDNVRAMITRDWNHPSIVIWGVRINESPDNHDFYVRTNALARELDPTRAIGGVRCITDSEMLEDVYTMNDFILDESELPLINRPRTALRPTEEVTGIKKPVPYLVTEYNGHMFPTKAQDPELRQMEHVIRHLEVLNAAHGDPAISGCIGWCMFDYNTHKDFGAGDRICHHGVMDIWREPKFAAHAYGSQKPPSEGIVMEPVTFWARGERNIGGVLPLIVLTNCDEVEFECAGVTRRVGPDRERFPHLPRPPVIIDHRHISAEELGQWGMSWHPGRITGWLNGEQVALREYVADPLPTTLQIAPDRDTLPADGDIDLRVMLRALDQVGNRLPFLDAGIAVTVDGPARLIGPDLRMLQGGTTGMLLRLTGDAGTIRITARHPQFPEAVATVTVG
Assay: relative activity with added sugar
Format: biochemical

Q: For `OC[C@H]1OC(O)[C@H](O)[C@@H](O)[C@H]1O` (some centres unmarked) [galactose], which activity at 100000 µM (read-out: Relative activity (%) / Galactose) is on record?
A: The activity at 100000 µM was 52 ± 1%.

Q: `OC[C@H]1OC(O)[C@H](O)[C@@H](O)[C@@H]1O` (some centres unmarked) [glucose] was tested. Which activity at 100000 µM (read-out: Relative activity (%) / Glucose) did it give?
A: The activity at 100000 µM was 38 ± 2%.
